Assay results as given in ChEMBL document CHEMBL4138123, “Design, synthesis and biological evaluation of novel pyrazolochalcones as potential modulators of PI3K/Akt/mTOR pathway and inducers of apoptosis in breast cancer cells” (Eur J Med Chem, 2017).

Columns and labels:
Format in all cases: functional
TK-10 = experiment: Cytotoxicity against human TK10 cells assessed as growth inhibition after 48 hrs by sulforhodamine B assay; conditions: TK-10, 48 h
KM12 = experiment: Cytotoxicity against human KM12 cells assessed as growth inhibition after 48 hrs by sulforhodamine B assay; conditions: KM12, 48 h
MCF7 = experiment: Cytotoxicity against human MCF7 cells assessed as growth inhibition after 48 hrs by sulforhodamine B assay; conditions: MCF7, 48 h
HCT-15 = experiment: Cytotoxicity against human HCT15 cells assessed as growth inhibition after 48 hrs by sulforhodamine B assay; conditions: HCT-15, 48 h

COc1ccc(-c2cc(/C=C/C(=O)c3ccc4c(c3)OCO4)[nH]n2)cc1OC
GI50 (TK-10): 1.5 µM | GI50 (KM12): 0.62 µM | GI50 (MCF7): 0.93 µM | GI50 (HCT-15): 1.09 µM
